Laboratory results as given in patent publication US7728131B2, “Amide derivative and medicine” (Nippon Shinyaku Co., Ltd., priority 2003, dated 2010).
Where two headings read alike, the source gives them in different places.

How the values were obtained:
[1] = test system: K562 cells; test: Cell growth inhibitory effect, K562 cells (Cell counting Kit-8, 72 hours); conditions: for IC50: Homo sapiens, K562, 72 h, read-out: K562 cells (IC50 value: μM); for Ratio (U937 cells/K562 cells): IC50 U937 cells / IC50 K562 cells;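 for all read-outs here: Read-out is formazan absorbance at 450 nm from WST-8 reduction after a 3 h color reaction, with K562 and U937 cells grown in 96-well plates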
Procedure: of Cell counting Kit-8 (5 mmol/l WST-8, 0.2 mmol/1 1-Methoxy PMS, 150 mmol/l NaCl) (manufactured by Dojindo) was added to each well. After reaction for color development in a CO2 incubator for 3 hours, an absorbance of formazan, generated by reduction of WST-8 was determined at 450 nm using Multi-level counter ARVOsx (manufactured by Wallac).
K562 cells and U937 cells (purchased from American Type Culture Collection) were cultured in a RPMI-1640 medium (manufactured by Sigma) containing 10% (v/v) fetal calf serum (FCS) (manufactures by Sigma) (RPMI-1640/FCS). K562 cells and U937 cells were seeded at a density of 5000 cells/100 μl/well and 4000 cells/100 μl/well in each of 96-hole-plate (manufactured by costar), respectively. The plate was incubated in a CO2 incubator overnight. […] The resulting solution was diluted 500 times in a RPMI-1640/FCS medium and then 100 μl of the diluent was added in a well. The plate was incubated in a CO2 incubator. After 72 hours, 20 μl

[2] = test system: U937 cells; test: Cell growth inhibitory effect, U937 cells (Cell counting Kit-8, 72 hours); format: cell-based; conditions: Homo sapiens, U-937, BCR-ABL negative U937 cells, WST-8 absorbance
Procedure: The plate was incubated in a CO2 incubator overnight. […] The plate was incubated in a CO2 incubator. After 72 hours, 20 μl

[3] = continuation of Table 3, read-out: U937 cells (IC50 value: nμM)

Row | SMILES | IC50 [1] [µM] | Ratio (U937 cells/K562 cells) [1] | IC50 ([2]; read-out: U937 cells (IC50 value: μM)) [µM] | melting point | IC50 [2, 3] [µM]
1 | CCN1CCN(Cc2ccc(C(=O)Nc3ccc(C)c(Nc4nccc(-c5cncc(Br)c5)n4)c3)cc2C(F)(F)F)CC1.Cl [Example 18, 4-(4-ethylpiperazin-1-ylmethyl)-3-trifluoromethyl-N-{3-[4-(5-bromopyridin-3-yl)pyrimidin-2-ylamino]-4-methylphenyl}benzamide hydrochloride] | 0.0048 | 958 | 4.6 | 166 to 172 °C (dec.) | 
2 | Cc1ccc(NC(=O)c2ccc(CN3CCN(C)CC3)c(Cl)c2)cc1Nc1nccc(-c2cncnc2)n1.Cl [Example 20, 3-chloro-4-(4-methylpiperazin-1-ylmethyl)-N-{4-methyl-3-[4-(5-pyrimidinyl)pyrimidin-2-ylamino]phenyl}benzamide hydrochloride] | 0.0026 | 11154 |  | 197 to 200 °C | 29
3 | Cc1ccc(NC(=O)c2ccc(CN3CCN(C)CC3)c(C(F)(F)F)c2)cc1Nc1cc(-c2cncnc2)ccn1.Cl [Example 23, 4-(4-methylpiperazin-1-ylmethyl)-3-trifluoromethyl-N-{4-methyl-3-[4-(5-primidinyl)pyridin-2-ylamino]phenyl}benzamide hydrochloride] | 0.0011 | 4545 |  | 203 to 206 °C (dec.) | 5
4 | CCN1CCN(Cc2ccc(C(=O)Nc3ccc(C)c(Nc4cc(-c5cncnc5)ccn4)c3)cc2C(F)(F)F)CC1.Cl [Example 25, 4-(4-ethylpiperazin-1-ylmethyl)-3-trifluoromethyl-N-{4-methyl-3-[4-(5-pyrimidinyl)pyridin-2-ylamino]phenyl}benzamide hydrochloride] | 0.0018 | 2111 |  | 254 to 256 °C (dec.) | 3.8
5 | CCN1CCN(Cc2ccc(C(=O)Nc3ccc(C)c(Nc4cc(-c5cccnc5)ccn4)c3)cc2C(F)(F)F)CC1.Cl [Example 27, 4-(4-ethylpiperazin-1-ylmethyl)-3-trifluoromethyl-N-{4-methyl-3-[4-(3-pyridyl)pyridin-2-ylamino]phenyl}benzamide hydrochloride] | 0.0025 | 1040 |  | 230 to 235 °C (dec.) | 2.6
6 | Cc1ccc(NC(=O)c2ccc(CN3CCN(C)CC3)c(C(F)(F)F)c2)cc1Nc1cc(-c2cccnc2)ncn1.Cl [Example 31, 4-(1-methylpiperazin-4-ylmethyl)-3-trifluoromethyl-N-{4-methyl-3-[6-(3-pyridyl)pyrimidin-4-ylamino]phenyl}benzamide hydrochloride] | 0.0069 | 304 |  | 190 to 194 °C (dec.) | 2.1
7 | Cc1ccc(NC(=O)c2ccc(CN3CCN(C)CC3)c(C(F)(F)F)c2)cc1Nc1cc(-c2cncnc2)ncn1.Cl [Example 33, 4-(1-methylpiperazin-4-ylmethyl)-3-trifluoromethyl-N-{4-methyl-3-[6-(5-pyrimidinyl)pyrimidin-4-ylamino]phenyl}benzamide hydrochloride] | 0.0084 | 1310 |  | 203 to 207 °C (dec.) | 11
8 | Cc1ccc(NC(=O)c2ccc(CN3CCN(CCF)CC3)c(C(F)(F)F)c2)cc1Nc1nccc(-c2cncnc2)n1.Cl [Example 35, 4-[4-(2-fluoroethyl)piperazin-1-ylmethyl]-3-trifluoromethyl-N-{4-methyl-3-[4-(5 yrimidinyl)pyrimidin-2-ylamino]phenyl}benzamide hydrochloride] | 0.0034 | 3235 |  | 213 to 233 °C (dec.) | 11
9 | Cc1ccc(NC(=O)c2ccc(CN3CCN(CCO)CC3)c(C(F)(F)F)c2)cc1Nc1nccc(-c2cncnc2)n1.Cl [Example 37, 4-[4-(2-hydroxyethyl)piperazin-1-ylmethyl]-3-trifluoromethyl-N-{4-methyl-3-[4-(5-pyrimidinyl)pyrimidin-2-ylamino]phenyl}benzamide hydrochloride] | 0.0014 | 7143 |  | 248 to 255 °C (dec.) | 10
10 | Cc1ccc(NC(=O)c2ccc(CN3CCNCC3)c(C(F)(F)F)c2)cc1Nc1nccc(-c2cncc(Br)c2)n1.Cl [Example 40, 4-(1-piperazinylmethyl)-3-trifluoromethyl-N-{3-[4-(5-bromopyridin-3-yl)pyrimidin-2-ylamino]-4-methylphenyl}benzamide hydrochloride] | 0.0039 | 1128 |  | 176 to 182 °C (dec.) | 4.4
11 | Cc1ccc(NC(=O)c2ccc(CN3CCNCC3)c(C(F)(F)F)c2)cc1Nc1cc(-c2cccnc2)ccn1.Cl [Example 42, 4-(1-piperazinylmethyl)-3-trifluoromethyl-N-{4-methyl-3-[4-(3-pyridyl)pyridin-2-ylamino]phenyl}benzamide hydrochloride] | 0.0068 | 206 |  | 190 to 195 °C (dec.) | 1.4
12 | Cc1ccc(NC(=O)c2ccc(CN3CCNC(C(N)=O)C3)c(C(F)(F)F)c2)cc1Nc1nccc(-c2cncnc2)n1.Cl (stereo not drawn) [Example 45, 4-(3-carbamoylpiperazin-1-ylmethyl)-3-trifluoromethyl-N-{4-methyl-3-[4-(5-pyrimidinyl)pyrimidin-2-ylamino]phenyl}benzamide hydrochloride] | 0.0031 | 4839 |  | 205 to 208 °C | 15
13 | Cc1ccc(NC(=O)c2ccc(CN3CCN(C)C(C(N)=O)C3)c(C(F)(F)F)c2)cc1Nc1nccc(-c2cncnc2)n1.Cl (stereo not drawn) [Example 50, 4-(3-carbamoyl-4-methylpiperazin-1-ylmethyl)-3-trifluoromethyl-N-{4-methyl-3-[4-(5-pyrimidinyl)pyrimidin-2-ylamino]phenyl}benzamide hydrochloride] | 0.0046 | 3478 |  | 203 to 208 °C | 16
14 | Cc1ccc(NC(=O)c2ccc(CN3CC(CN(C)C)C3)c(C(F)(F)F)c2)cc1Nc1nccc(-c2cncnc2)n1.Cl [Example 54, 4-[3-(dimethylaminomethyl)azetidin-1-ylmethyl]-3-trifluoromethyl-N-{4-methyl-3-[4-(5-pyrimidinyl)pyrimidin-2-ylamino]phenyl}benzamide hydrochloride] | 0.0096 | 1667 |  | 142 to 152 °C (dec.) | 16
15 | Cc1ccc(NC(=O)c2ccc(CN3CCN[C@H](C)C3)c(C(F)(F)F)c2)cc1Nc1nccc(-c2cncnc2)n1.Cl [Example 56, (+)-4-((R)-3-methylpiperazin-1-ylmethyl)-3-trifluoromethyl-N-{4-methyl-3-[4-(5-pyrimidinyl)pyrimidin-2-ylamino]phenyl}benzamide hydrochloride] | 0.0046 | 957 |  | 254 to 258 °C | 4.4
